Experimental data as given in US20240245694A1, “Tricyclic Compounds and their Uses” (Novartis AG, priority 2022, published 2024).

Experiments:
[1] = molecular target: WRN helicase (core helicase motif aa N517-P1238) (Homo sapiens (Human), UniProt Q14191); assay: WRN ATPase assay (ADP-Glo), DNA dependent ATP hydrolysis; type: biochemical; details: 3 hours pre-incubation, 300 micromolar ATP, FLAP26 ssDNA; geometric means of at least 2 determinations
In short: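 Uses the WRN core helicase (aa N517-P1238) with single-strand 45-mer FLAP26 DNA in Tris pH 7.5, MgCl2, NaCl, BSA and pluronic buffer. Compound was pre-incubated 3 h with enzyme and ATP; reaction then run with 10 nM WRN, 0.2 nM FLAP26 and 300 µM ATP for 30 min at room temperature. ADP quantified by ADP-Glo luminescence; IC50 from duplicate 4-parameter fits, geometric mean of ≥2 runs.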

[2] = Tolerability (body weight) in the SW48 xenograft study; type: in vivo, Crl:NU(NCr)-Foxn1nu nude mice
Description: Experiments were performed in female Crl:NU(NCr)-Foxn1^nu-homozygous nude mice (Charles River). Animals were housed under Optimized Hygienic Conditions in Allentown XJ cages (IVC, max. 6 mice per cage) with food and water at libitum and a 12 h:12 h light:dark cycle. Animals were allowed to acclimatize for at least 1 week before being enrolled in the experimental design. The study described here was performed according to license 1975 approved by the Basel Cantonal Veterinary Office.
Amorphous sodium salt of test compound (corrected by salt factor) was dissolved in an aqueous 20% w/v solution of 2-hydroxypropyl-beta-cyclodextrin (HPBCD). A range of concentrations was prepared by serial dilution starting from the solution at highest concentration for the highest dose in the study.
Treatment was initiated about two weeks post tumor cell inoculation, when the xenografts had reached a mean volume of approximately 200 mm^3. The tumor bearing animals were randomized based on tumor volumes into experimental groups with 6 animals per group and treatment was initiated. Compounds were dosed orally (p.o.) once per day (qd) at 1, 3, 5 or 10 mg/kg (Example 18A) and at 0.1, 0.3, 1, 3 mg/kg (Example 21A). In addition, a control group treated once per day with vehicle (20% 2-hydroxypropyl-β-cyclodextrin) was included in each study. Tumor volumes and body weights were measured two times per week until the study termination.

Sequence of WRN helicase (core helicase motif aa N517-P1238) (Q14191 517-1238): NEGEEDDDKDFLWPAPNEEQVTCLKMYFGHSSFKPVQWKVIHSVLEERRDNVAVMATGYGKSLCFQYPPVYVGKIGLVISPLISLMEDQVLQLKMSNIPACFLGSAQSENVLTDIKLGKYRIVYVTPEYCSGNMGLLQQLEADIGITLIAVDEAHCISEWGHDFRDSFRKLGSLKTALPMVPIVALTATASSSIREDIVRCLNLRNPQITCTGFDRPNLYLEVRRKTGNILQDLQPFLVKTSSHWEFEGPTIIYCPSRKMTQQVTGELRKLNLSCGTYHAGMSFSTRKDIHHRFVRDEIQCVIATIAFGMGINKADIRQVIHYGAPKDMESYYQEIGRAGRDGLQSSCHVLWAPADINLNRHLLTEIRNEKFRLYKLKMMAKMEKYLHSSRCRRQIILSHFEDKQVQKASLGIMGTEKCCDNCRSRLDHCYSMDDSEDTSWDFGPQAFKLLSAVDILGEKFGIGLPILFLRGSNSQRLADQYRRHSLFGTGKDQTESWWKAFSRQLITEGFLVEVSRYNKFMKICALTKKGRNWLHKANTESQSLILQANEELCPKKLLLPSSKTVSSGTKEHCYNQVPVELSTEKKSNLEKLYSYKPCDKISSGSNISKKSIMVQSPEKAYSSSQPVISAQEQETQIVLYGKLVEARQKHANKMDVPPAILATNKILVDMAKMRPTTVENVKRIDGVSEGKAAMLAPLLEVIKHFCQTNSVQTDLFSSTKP

With `Cc1ncnc(C(=O)N2CCN(c3c4n(c5nc(C6=CCOCC6)nn5c3=O)[C@@H](C(=O)Nc3ccc(C(F)(F)F)cc3Cl)C[C@H]4C)C[C@H]2C)c1O` [Example 18A, (7R,9R)—N-(2-chloro-4-(trifluoromethyl)phenyl)-2-(3,6-dihydro-2H-pyran-4-yl)-6-((R)-4-(5-hydroxy-6-methylpyrimidine-4-carbonyl)-3-methylpiperazin-1-yl)-7-methyl-5-oxo-5,7,8,9-tetrahydropyrrolo[1,2-c][1,2,4]triazolo[1,5-a]pyrimidine-9-carboxamide] the IC50 [1] was 50 nM, the “body weight gain, of the body weight at start” value ([2]; 1, 3, 5 or 10 mg/kg p.o. qd, after the initial body weight loss) was “up to 18%” and the “initial body weight loss among individual animals” value ([2]; 1, 3, 5 or 10 mg/kg p.o. qd, first ten days of treatment) was at most 14%.

For `Cc1ncnc(C(=O)N2CCN(c3c4n(c5nc(C6=CCOCC6)nn5c3=O)[C@@H](C(=O)Nc3ccc(C(F)(F)F)cc3Cl)C[C@H]4C)[C@H]3CC[C@@H]32)c1O` [Example 21A, (7R,9R)—N-(2-chloro-4-(trifluoromethyl)phenyl)-2-(3,6-dihydro-2H-pyran-4-yl)-6-((1S,6S)-5-(5-hydroxy-6-methylpyrimidine-4-carbonyl)-2,5-diazabicyclo[4.2.0]octan-2-yl)-7-methyl-5-oxo-5,7,8,9-tetrahydropyrrolo[1,2-c][1,2,4]triazolo[1,5-a]pyrimidine-9-carboxamide], the IC50 [1] was 30 nM, the tolerability ([2]; 0.1, 0.3, 1, 3 mg/kg p.o. qd, throughout the study) was “well tolerated” and the “body weight loss among individual animals on individual occasions” value ([2]; 0.1, 0.3, 1, 3 mg/kg p.o. qd, not dose-dependent) was at most 15%.
